One data set concerns human erythrocytes. Kind of data set: Human blood hemolysis. The format is cell-based. How it is done:
Human blood hemolysis. Hemolytic activity of retinoids on human erythrocytes was evaluated using a previously described method with modifications. 10% human erythrocytes were purchased from Rockland Immunochemicals (Limerick, PA, USA). The erythrocytes were diluted to 4% with PBS, and 100 μl was added to 100 μl of two-fold serial dilutions of compounds in PBS, 0.2% DMSO (negative control), or 2% Triton-X 100 (positive control) in a 96-well plate. The plate was incubated at 37° C. for 1 h and then centrifuged at 500×g for 5 min. 100 μl of the supernatant was transferred to a fresh 96-well plate and absorbance of supernatants was measured at 540 nm. Percent hemolysis was calculated using the following equation: (A540 nm of compound treated sample−A540 nm of 0.1% DMSO treated sample)/(A540 nm of 1% Triton X-100 treated sample−A540 nm of 0.1% DMSO treated sample)×100. HC50 (concentration of compound causing 50% hemolysis) was determined using SigmaPlot 10.0 (Systat Software Inc., San Jose, CA, USA).

Data set [1] can be described thus: Cytotoxicity (WST-1) in a panel of human cell lines. It counts as cell-based. The following applies: panel of human cell lines, serum-free media, 24 h; read-out: LC50. How it is done: (§1) Cytotoxicity. Cryopreserved rat and human primary hepatocytes were purchased from the Cell Resource Core at Massachusetts General Hospital (Boston, MA, USA). The hepatocytes were cultured in a collagen sandwiched configuration in 24-well plates, as described previously. Briefly, 4×10^5 live cells were seeded in 24-well plates coated with rat tail collagen type I. Plates were incubated in a humidified 5% CO2 incubator at 37° C. for 4 h to allow cells to attach to the collagen gel. […] The cell cultures were incubated in a humidified 5% CO2 incubator at 37° C.
(§2) For cytotoxicity tests, HepG2, RPTEC, and NHEK were cultured at 70-80% confluence in tissue culture treated 96-well plates in a volume of 100 μl/well corresponding culture media. To test cytotoxicity in the absence of serum, all cells were washed twice with PBS and then once with the serum-free corresponding culture media. […] WST-1 reduction was measured at 450 nm. The percent fluorescence relative to that of the no-treatment control was calculated. The assay was done in triplicate.
(Tetrazolium assays rely on reduction of a dye to a coloured formazan, in cell work by metabolically active cells.)

The test system of data set [2] is panel of human cell lines. The data set is described as above. The format is cell-based. The following applies: compared with CD437, in words. How it is done:
as §1, §2

A short description of data set [3]: Cytotoxicity (WST-1) in HepG2 cells. The conditions noted are these: human; HepG2 cells, serum-free media, 24 h; read-out: LC50. It counts as cell-based, human. An excerpt: (§3) Human hepatoma, HepG2 (ATCC HB-8065) cells were maintained in DMEM containing 10% fetal bovine serum and antibiotics penicillin—streptomycin (100 units/ml). Normal human primary renal proximal tubular epithelial cells (RPTEC, Lonza catalog #CC-2553, Walkersville, MD, USA) and adult normal human epidermal keratinocytes (NHEK, Lonza catalog #192627) were maintained in renal cell growth media with growth supplements (REGM, Lonza catalog #CC-3190) and in keratinocyte growth media 2 with growth supplements (KGM-2, Lonza catalog #CC-3107), respectively in a humidified 5% CO2 incubator at 37° C.
(§4) For cytotoxicity tests, HepG2, RPTEC, and NHEK were cultured at 70-80% confluence in tissue culture treated 96-well plates in a volume of 100 μl/well corresponding culture media. To test cytotoxicity in the absence of serum, all cells were washed twice with PBS and then once with the serum-free corresponding culture media. The cells were then treated with a range of concentrations of retinoids in the serum-free culture media for 24 h. For the last 4 h of the 24 h period, 50 μl and 10 μl of WST-1 (Roche, Mannheim, Germany) were added in each well of the 24-well and the 96-well plates, respectively. WST-1 reduction was measured at 450 nm. The percent fluorescence relative to that of the no-treatment control was calculated. The assay was done in triplicate.

The test system of data set [4] is human hepatoma HepG2 cells. Kind of data set: Cytotoxicity (WST-1) in HepG2 cells. The format is cell-based. The following applies: compared with CD437, in words.
Source text: as §3, §4

Data set [5] has as its system Cutibacterium (Propionibacterium) acnes. Kind of data set: Growth inhibition / MIC against P. acnes. The following applies: in words (FIG. 11). It counts as cell-based. As for the experimental part:
Minimal inhibitory concentration (MIC) assay. The MICs of antibiotics were determined by the standard micro-dilution method recommended by the Clinical and Laboratory Standards Institute. The assay was conducted in triplicate.
More specifically, uptake of SYTOX Green by Cutibacterium (Propionibacterium) acnes cells treated with retinoids CD437 and Analog 2 increased, indicating higher permeability (FIG. 12; individual data points (n=3 biologically independent samples) and means are shown).

Data set [6] has the same test system. Kind of data set: Morphology of treated P. acnes bacteria. The format is cell-based. The conditions noted are these: in words (FIG. 13).

The values below come from patent publication US12195424B2, “Antibiotic compounds” (The General Hospital Corporation, priority 2017, dated 2025).

Each structure is given as a SMILES string.

Take `OCc1ccc2cc(-c3ccc(O)c(C45CC6CC(CC(C6)C4)C5)c3)ccc2c1` [Analog 2, 2-(adamantan-1-yl)-4-(6-(hydroxymethyl)naphthalen-2-yl)phenol]: the hemolytic activity entry in the data set with human erythrocytes (compared with CD437, in words) is “significantly reduced”. The HC50 (as a rule, the concentration that lyses half of the red blood cells) with human erythrocytes (human erythrocytes, 1 h) was over 32 µg/mL. In addition, the results for the CC50 at 24 h in data set [1] and in data set [3] were at least 31 µg/mL and over 32 µg/mL, respectively. Also, the cytotoxicity entry in data set [2] is reported as “significantly reduced”. Further, the anticancer activity entry in data set [4] was “significantly reduced”. Further, the growth inhibition entry in data set [5] is “inhibit the growth”. Besides, the morphology of bacteria result in data set [6] was “altered and elongated”.
